Key:
[1] = target: T1, Nuclear receptor ROR-gamma (Homo sapiens) (UniProt P51449); experiment: Agonist activity at His tagged human RORgammat LBD (unknown origin) expressed in baculovirus infected sf9 cells assessed as biotinylated-LXXLL peptide coactivator recruitment at <0.5 uM incubated for overnight by TR-FRET Assay relative to control
T1 sequence (whole entry): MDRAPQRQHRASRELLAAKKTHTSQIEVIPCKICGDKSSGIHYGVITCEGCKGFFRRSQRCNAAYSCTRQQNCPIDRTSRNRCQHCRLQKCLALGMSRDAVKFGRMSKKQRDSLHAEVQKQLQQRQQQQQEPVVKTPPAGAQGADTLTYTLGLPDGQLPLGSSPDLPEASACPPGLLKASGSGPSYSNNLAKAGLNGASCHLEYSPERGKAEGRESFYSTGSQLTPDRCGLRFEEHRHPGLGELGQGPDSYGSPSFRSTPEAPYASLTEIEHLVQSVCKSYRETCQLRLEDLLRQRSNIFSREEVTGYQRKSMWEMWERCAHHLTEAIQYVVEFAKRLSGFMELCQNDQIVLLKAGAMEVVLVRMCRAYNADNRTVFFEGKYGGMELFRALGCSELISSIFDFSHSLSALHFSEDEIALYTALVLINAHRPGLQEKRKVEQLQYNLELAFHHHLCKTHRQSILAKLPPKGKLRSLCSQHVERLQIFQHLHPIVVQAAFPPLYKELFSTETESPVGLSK

[2] = target: T1, Nuclear receptor ROR-gamma (Homo sapiens); experiment: Agonist activity at Gal4-fused DBD RORgammat LBD (unknown origin) expressed in HEK293 cells assessed as coactivator recruitment at <0.5 uM incubated for overnight in presence of ursolic acid by luciferase reporter gene Assay relative to control; type: cell-based
[3] = target: T2, Nuclear receptor ROR-gamma (Homo sapiens, UniProt P51449); experiment: Agonist activity at His tagged RORgammat LBD (unknown origin) expressed in baculovirus infected sf9 cells assessed as biotinylated-LXXLL peptide coactivator recruitment incubated for overnight by TR-FRET Assay
T2 sequence (P51449 whole entry): T1 sequence (whole entry)

[4] = target: T2, Nuclear receptor ROR-gamma; experiment: Agonist activity at Gal4-fused DBD RORgammat LBD (unknown origin) expressed in HEK293 cells assessed as coactivator recruitment incubated for overnight in presence of ursolic acid by luciferase reporter gene Assay; type: cell-based
[5] = target: T2, Nuclear receptor ROR-gamma; experiment: Agonist activity at 6xHis tagged human RORgammat LBD (262 to 507 residues) expressed in Escherichia coli BL21 (DE3) assessed as biotinylated SRC1-2 peptide coactivator recruitment by AlphaScreen assay
[6] = target: T2, Nuclear receptor ROR-gamma; experiment: Agonist activity at Gal4-fused RORgammat DNA binding domain (unknown origin) expressed in 293T cells assessed as SRC1 coactivator recruitment in presence of ursolic acid by TR-FRET assay; type: cell-based

CCN(c1cccc(OCc2c(Cl)cccc2Cl)c1)S(=O)(=O)c1cccc(C(F)(F)F)c1
Activity [1]: > 200%
Activity [2]: > 200%

C[C@H]1CN(S(=O)(=O)c2cccc(C(F)(F)F)c2)c2nc(COc3c(F)cccc3Cl)ccc2O1
EC50 [3]: < 500 nM
EC50 [4]: < 500 nM

CC(C)CCC[C@@](C)(O)[C@H]1CC[C@H]2[C@@H]3CC=C4C[C@@H](O)CC[C@]4(C)[C@H]3CC[C@@]21C
EC50 [5]: 20 to 40 nM

CC(C)=CCC[C@@H](C)[C@H]1CC[C@H]2C3=C(CC[C@]12C)[C@@]1(C)CC[C@H](O)C[C@@H]1CC3
EC50 [6]: 110 nM

O=C(O)C1Cc2ccc(OCc3c(F)cccc3Cl)cc2N(S(=O)(=O)c2cccc(C(F)(F)F)c2)C1 (stereo not given)
Activity [1]: > 200%
Activity [2]: > 200%

CC(C)CCC[C@@H](C)[C@H]1CC[C@H]2[C@@H]3CC=C4C[C@@H](O)CC[C@]4(C)[C@H]3CC[C@]12C [CHOLESTEROL]
EC50 [5]: 20 nM

C/C(=C\c1ccc2c(c1)N(S(=O)(=O)c1cccc(C(F)(F)F)c1)C[C@H](CCc1nn[nH]n1)O2)c1c(F)cccc1Cl
Activity [1]: > 200%
Activity [2]: > 200%

CC(C)CC[C@@H](O)[C@@H](C)[C@H]1CC[C@H]2[C@@H]3CC=C4C[C@@H](O)CC[C@]4(C)[C@H]3CC[C@]12C [22(R)-HYDROXYCHOLESTEROL]
EC50 [5]: 20 to 40 nM

COc1c(Cl)cccc1-c1ccc2c(c1)N(S(=O)(=O)c1cccc(C(F)(F)F)c1)C[C@H](CCC(=O)O)O2
Activity [1]: > 200%
Activity [2]: > 200%

CC(C)=CCC[C@@H](C)[C@H]1CC[C@H]2[C@@H]3CC=C4C[C@@H](O)CC[C@]4(C)[C@H]3CC[C@]12C [DESMOSTEROL]
EC50 [6]: 80 nM

From ChEMBL document CHEMBL4130622, “Retinoic Acid Receptor-Related Orphan Receptor γt (RORγt) Agonists as Potential Small Molecule Therapeutics for Cancer Immunotherapy” (J Med Chem, 2018)
